Assay results taken from patent US8658183B2, “Antimicrobial parenteral formulation” (Taigen Biotechnology Company, Ltd., priority 2007, dated 2014).
≈ marks a conversion by molar mass, not a printed value. Read-outs that look alike come from different tables or passages of the source.

Columns and labels:
MRSA = test: In vitro antibacterial activity, agar dilution; type: cell-based, S. aureus
Method: (§1) Various bacterial species, such as Gram positive bacteria (e.g., Clostridium, Staphylococcus and Streptococcus), Gram negative bacteria (e.g., Moraxella, Haemophilus, Pseudomonas, Proteus, and Bacteriodes), anaerobic and atypical pathogens, were isolated from clinical samples. The antibacterial activity of Compound of Formula I against these bacterial species were determined using agar dilution assays described in the U.S. National Committee for Clinical Laboratory, M7-A6, 2003, and M11-A5, 2001.

[1] = Effect of iron content on Compound 1 saline formulation; type: physicochemical; settings: 5 mg/mL in 0.9% saline, filtered, sterilized
Method: The solution was equally divided into 2 portions. To one portion was added 0.25 g activated charcoal and to the other was added 0.25 g activated charcoal and 0.1 g of iron powder. Each of the resulting mixture was stirred and filtered to a 100-mL polypropylene bottle.

[2] = Effect of pH on Compound 1 saline formulation; type: physicochemical; settings: 5 mg/mL in 0.9% saline
[3] = Effect of activated charcoal on Compound 1 saline formulation; settings: 5 mg/mL in 0.9% NaCl
[4] = 5 mg/mL in 5% dextrose
Method: The solution was filtered and transferred to in 100-mL polypropylene bottles. The bottles were capped, sealed, sterilized at 110° C. for 35 min, and stored at 60° C. oven. The solution in the bottles was analyzed on days 0, 5, and 10.

staphylococci = test: In vitro antibacterial activity, agar dilution; type: cell-based, Staphylococcus
Method: as §1

streptococci = test: In vitro antibacterial activity, agar dilution; type: cell-based, Streptococcus
Method: as §1

[5] = activated charcoal and iron powder added
[6] = activated charcoal, no iron powder
[7] = activated charcoal added 0.02% (g/mL)
[8] = activated charcoal added 0.05% (g/mL)
[9] = activated charcoal added 0.5% (g/mL)
[10] = 0 day, after sterilization (110° C., 35 min)

## COc1c(N2C[C@@H](C)C[C@H](N)C2)ccc2c(=O)c(C(=O)O)cn(C3CC3)c12 [Compound 1, (3S,5S)-7-[3-amino-5-methyl-piperidinyl]-1-cyclopropyl-1,4-dihydro-8-methoxy-4-oxo-3-quinolinecarboxylic acid]
MRSA; ciprofloxacin-resistant MRSA clinical isolates
  MIC90: 1 mg/L (≈ 2.69 µM)
MRSA; ciprofloxacin-sensitive MRSA clinical isolates
  MIC90: 0.06 mg/L (≈ 0.162 µM)
[1]; [5]
  Appearance: Reddish Brown
  pH: 3.77
[1]; [6]
  Appearance: Light yellow
  pH: 3.78
[2]; pH 2.17
  Appearance: clear yellow solution
  Comparative content of Compound 1 (%): 96.68%
[2]; pH 4.50
  Appearance: clear yellow solution
  Comparative content of Compound 1 (%): 101.14%
[2]; pH 6.60
  Appearance: White precipitate
[3]; activated charcoal added 0
  Comparative content of Compound 1 (%): 109.0%
[3]; activated charcoal added 0, boiled 25 min, filtered, sterilized
  pH Value: 3.96
[3]; [7]
  Comparative content of Compound 1 (%): 108.8%
  pH Value: 3.88
[3]; [8]
  Comparative content of Compound 1 (%): 109.2%
  pH Value: 3.88
[3]; [9]
  Comparative content of Compound 1 (%): 63.9%
  pH Value: 3.80
[4]; [10]
  Appearance: Clear yellow
  Comparative content of Compound 1 (%): 97.8%
  pH: 3.88
[4]; 0 day, before sterilization
  Appearance: Clear yellow
  Comparative content of Compound 1 (%): 100.4%
  pH: 3.89
[4]; 5 days at 60° C.
  Appearance: Dark yellow
  Comparative content of Compound 1 (%): 96.0%
  pH: 4.03
[4]; 10 days at 60° C.
  Appearance: Brown
  Comparative content of Compound 1 (%): 94.2%
  pH: 4.08
staphylococci; all staphylococci in this study
  MIC values: < 2 mg/L
staphylococci; including methicillin-resistant S. aureus (MRSA)
  antibacterial activity (in words): especially active
streptococci; all streptococci in this study
  MIC values: < 1 mg/L
streptococci; including multi-resistant S. pneumoniae
  antibacterial activity (in words): especially active
